These results are taken from ChEMBL document CHEMBL1133979, “1,2,4-triazolo[3,4-a]pyridine as a novel, constrained template for fibrinogen receptor (GPIIb/IIIa) antagonists” (Bioorg Med Chem Lett, 2001).

For data set [1], the target named is T1, Integrin alpha-IIb/beta-3 (Homo sapiens, UniProt P05106+P08514). In words: Inhibition of biotinylated fibrinogen binding to immobilized integrin GPIIb/IIIa. Type of data set: protein-complex assay.
The subject of data set [2] is Canis familiaris. Kind of data set: Ex vivo oral duration for maintaining at least 50% inhibition of platelet aggregation induced by adenosine diphosphate after administration at a dose of at 1 mg/kg. Type of data set: functional, Canis lupus familiaris.
Data set [3] can be described thus: Oral bioavailability in dog. The class given is ADME, organism-based, Canis lupus familiaris. The settings on record: in vivo.
For data set [4], the target named is T1, Integrin alpha-IIb/beta-3. Kind of data set: Inhibition of thrombin-induced human gel-filtered platelet aggregation at 50 uM; NA= Inactive. The class given is functional.
A short description of data set [5]: Half life in dog. The class given is ADME, organism-based, Canis lupus familiaris. The note with it: in vivo.

The IC50 is the concentration that gives 50% inhibition. As a reminder, the half-life is the time needed for the level to fall by half in the phase considered. A lower half-life goes with rapid decline.

T1 sequence (P05106 27-788 limits assumed): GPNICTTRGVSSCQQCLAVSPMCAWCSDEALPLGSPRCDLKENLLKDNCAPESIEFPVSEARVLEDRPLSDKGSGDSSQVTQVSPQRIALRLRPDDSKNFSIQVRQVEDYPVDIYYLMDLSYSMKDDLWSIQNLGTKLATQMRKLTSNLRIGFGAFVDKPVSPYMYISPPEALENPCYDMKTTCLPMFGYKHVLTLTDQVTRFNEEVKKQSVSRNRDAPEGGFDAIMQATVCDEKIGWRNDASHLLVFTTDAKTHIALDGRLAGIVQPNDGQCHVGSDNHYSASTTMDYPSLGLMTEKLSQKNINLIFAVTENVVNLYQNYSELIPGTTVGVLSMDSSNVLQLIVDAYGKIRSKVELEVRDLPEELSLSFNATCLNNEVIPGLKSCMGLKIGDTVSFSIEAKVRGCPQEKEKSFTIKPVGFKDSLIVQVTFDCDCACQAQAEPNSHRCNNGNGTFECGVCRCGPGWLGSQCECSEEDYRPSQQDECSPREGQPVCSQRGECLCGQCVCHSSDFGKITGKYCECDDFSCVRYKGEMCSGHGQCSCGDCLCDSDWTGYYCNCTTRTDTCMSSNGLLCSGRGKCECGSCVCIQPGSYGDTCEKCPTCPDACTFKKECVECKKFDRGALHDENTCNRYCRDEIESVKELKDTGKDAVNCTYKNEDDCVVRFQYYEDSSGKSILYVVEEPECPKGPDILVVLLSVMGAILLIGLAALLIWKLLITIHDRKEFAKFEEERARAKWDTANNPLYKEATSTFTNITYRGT
T1 sequence (P08514 32-887 limits assumed): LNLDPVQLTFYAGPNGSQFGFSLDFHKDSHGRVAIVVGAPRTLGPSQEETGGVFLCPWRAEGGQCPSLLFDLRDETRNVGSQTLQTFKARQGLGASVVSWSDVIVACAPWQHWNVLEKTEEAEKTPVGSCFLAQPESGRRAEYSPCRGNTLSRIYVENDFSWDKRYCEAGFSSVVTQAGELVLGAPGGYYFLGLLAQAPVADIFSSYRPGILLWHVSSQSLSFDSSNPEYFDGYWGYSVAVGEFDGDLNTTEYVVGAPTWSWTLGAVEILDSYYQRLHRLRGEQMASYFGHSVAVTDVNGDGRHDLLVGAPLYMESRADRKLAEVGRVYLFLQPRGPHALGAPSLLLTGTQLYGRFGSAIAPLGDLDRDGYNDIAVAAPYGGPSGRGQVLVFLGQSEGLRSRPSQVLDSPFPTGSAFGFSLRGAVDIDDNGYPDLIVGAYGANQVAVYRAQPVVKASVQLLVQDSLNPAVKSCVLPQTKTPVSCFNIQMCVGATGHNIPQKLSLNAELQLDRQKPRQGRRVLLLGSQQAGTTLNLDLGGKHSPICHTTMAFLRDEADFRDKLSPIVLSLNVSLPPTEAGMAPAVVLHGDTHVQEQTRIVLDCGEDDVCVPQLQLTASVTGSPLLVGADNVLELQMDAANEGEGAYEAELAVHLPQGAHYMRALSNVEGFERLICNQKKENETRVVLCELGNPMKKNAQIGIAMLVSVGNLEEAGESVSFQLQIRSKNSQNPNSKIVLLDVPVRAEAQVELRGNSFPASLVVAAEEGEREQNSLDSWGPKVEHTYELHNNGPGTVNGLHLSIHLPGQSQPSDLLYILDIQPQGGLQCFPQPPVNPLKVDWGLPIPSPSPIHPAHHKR
T1 sequence (P08514 891-1039 limits assumed): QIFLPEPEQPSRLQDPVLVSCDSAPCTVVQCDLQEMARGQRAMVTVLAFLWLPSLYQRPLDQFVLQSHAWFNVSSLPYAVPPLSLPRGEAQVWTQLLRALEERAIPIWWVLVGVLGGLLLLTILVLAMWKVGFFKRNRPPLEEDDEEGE

`O=C(O)C[C@H](NC(=O)C1CCCn2c(CCC3CCNCC3)nnc21)c1cccnc1` (stereo not given in full) yielded an IC50 in data set [1] of 0.53 nM. In addition, the Oral duration in data set [2] turned out to be 3 h.

In data set [1], `O=C(O)C[C@H](NC(=O)c1cccn2c(CCC3CCNCC3)nnc12)c1cccnc1` displayed an IC50 of 4.2 nM.

In data set [1], `O=C(O)C[C@H](NC(=O)C1CCCn2c(/C=C/C3CCNCC3)nnc21)c1cccnc1` (stereo not given in full) gave a half-maximal inhibitory concentration (IC50) of 0.21 nM. Besides, the Oral duration in data set [2] is >6 h. In data set [3], this compound gave a bioavailability of 31%.

In data set [1], `O=C(N[C@@H](CNC(=O)C1CCCn2c(/C=C/C3CCNCC3)nnc21)C(=O)O)OCc1ccccc1` (stereo not given in full) showed a half-inhibitory concentration (IC50) of 0.32 nM. In addition, the Oral duration in data set [2] is >6 h. Moreover, the bioavailability in data set [3] turned out to be 23%.

Consider `O=C(NC[C@H](NS(=O)(=O)Cc1ccccc1)C(=O)O)C1CCCn2c(/C=C/C3CCNCC3)nnc21` (stereo not given in full), for which the Oral duration in data set [2] was <0.5 h.

In turn, `O=C(N[C@@H](CNC(=O)[C@@H]1CCCN(C(=O)CCC2CCNCC2)C1)C(=O)O)OCc1ccccc1` displayed a half-inhibitory concentration (IC50) in data set [1] of 0.17 nM. In addition, in data set [2], the Oral duration was 3 h.

`O=C(N[C@@H](CNC(=O)C1CCCn2c(CCC3CCNCC3)nnc21)C(=O)O)OCc1ccccc1` (stereo not given in full): the Oral duration in data set [2] worked out at 4 h.

Compound `O=C(O)C[C@H](NC(=O)C1CCCn2c(/C=C/C3CCNCC3)nnc21)c1cnc2ccccc2c1` (stereo not given in full) returned an Oral duration in data set [2] of 4.5 h.

In the case of `CC1(C(=O)NC[C@H](NC(=O)OCc2ccccc2)C(=O)O)CCCn2c(CCC3CCNCC3)nnc21` (stereo not given in full), in data set [2], the Oral duration is <0.5 h.

On to `O=C(O)C[C@H](NC(=O)c1cccn2c(/C=C/C3CCNCC3)nnc12)c1cccnc1`, for which the IC50 result in data set [4] was “Not Active”.

In data set [1], `O=C(O)C[C@H](NC(=O)[C@@H]1CCCN(C(=O)CCC2CCNCC2)C1)c1cccnc1` [ELAROFIBAN] registered an IC50 of 0.36 nM. Moreover, in data set [2], the Oral duration came out at 5 h. Also, in data set [5], the half-life is 5 h. The bioavailability in data set [3] (read-out: Bioavailabiility) came out at 16%.
